Source: patent US9993553B2, “Methods and compositions for targeted release of molecules from nanoscale carriers” (The Regents of the University of California, priority 2013, dated 2018)
{6-FAM} = 6-carboxyfluorescein dye; {BHQ-1} = Black Hole Quencher-1

Legend:
[1] = X-ray radiation cleavage of 6-FAM labelled DNA, fluorescence spectroscopy, with DMSO as hydroxyl radical scavenger; assay type: physicochemical; details: 100 Gy
Experimental: X-ray radiation studies were performed, using DMSO as a hydroxyl radical scavenger at concentrations from 0-100 mM. In a 24-well plate, 400 μL of purified 6-FAM-DNA-AuNPs were mixed with 400 μL of 2×DMSO solution, or PBS and the samples were irradiated with X-rays. After radiation, the AuNPs were removed from solution by centrifugation (13,000 rpm, 15 min) and supernatant fluorescence was measured (Excitation at 490 nm and Emission at 514 nm). Non-radiated controls were identically prepared and measured.
6-FAM has a high fluorescence yield (>80%) and high quenching when attached to AuNPs. The cleavage via X-ray irradiation was studied with optical fluorescence spectroscopy.
Black Hole Quencher®-1 DNA, coupled to 6-FAM, was purchased from IDT (6-FAM-5′-[…]-3′-BHQ-1®). It was irradiated with DMSO at concentrations from 0-100 mM in 24 well plates, and the fluorescence from cleaved DNA was measured. […] X-ray radiated and cleaved 6-FAM molecules were incubated with MCF-7 cells for 4 hours.

MCF-7 cells = assay: Clonogenic assay with X-ray irradiation; assay type: cell-based
Experimental: MCF-7 cells were plated at a rate of 50,000 cells/ml in a 24-well cell culture plate. They were then incubated with DOX, DOX-DNA, and DOX-DNA-AuNPs for 12 hours, and then irritated with 0, 2, 5, and 10 Gy X-rays. The cells were then counted, using a hemocytometer, and replated in a 6 well plate at 1000 cell per well for the 0 and 2 Gy dose; 3000 cells for the 5 Gy; and 9000 for the 10 Gy. The plates were incubated for 14 days, and then fixed with gluteraldhyde and stained with crystal violet. The colonies with 50 or more cells were then counted.

Compound	Effect of DMSO (hydroxyl radical scavenger) on cleavage / fluorescence ([1]; DMSO up to 100 mM)	Cleavage after X-ray radiation ([1]; zero DMSO)	Cleavage (fluorescence) after X-ray radiation in the presence of AuNPs ([1]; zero DMSO, mixture with AuNPs, no covalent conjugation)	Measured cell survivability (MCF-7 cells; 0 Gy)	Measured cell survivability (MCF-7 cells; 2 Gy)	Measured cell survivability (MCF-7 cells; 5 Gy)	Measured cell survivability (MCF-7 cells; 10 Gy)	Survivability of MCF-7 cells (MCF-7 cells; DOX alone, no radiation)	Toxicity to MCF-7 cells (MCF-7 cells; DOX alone, no radiation, 24 million free DOX in the cell)
6-FAM-5′-TTAGGGTTAGGG-3′-BHQ-1® (DNA, 5' {6-FAM}, 3' {BHQ-1}, backbone not given here) [Q-DNA-6-FAM, Black Hole Quencher-1 DNA coupled to 6-FAM, purchased from IDT]	significantly reduced the fluorescence	25%	4%	–	–	–	–	–	–
COc1cccc2c1C(=O)c1c(O)c3c(c(O)c1C2=O)C[C@@](O)(C(=O)CO)C[C@@H]3O[C@H]1C[C@H](N)[C@H](O)[C@H](C)O1 [DOX, doxorubicin]	–	–	–	0.81 ± .01	0.61 ± .05	0.28 ± .02	0.07 ± .002	80%	about 20%
